Measurements taken from article PMC10797628.
Read-outs that look alike come from different tables or passages of the source.

Tests used:
human 5-HT1A receptor [1] = target: T1, human 5-HT1A receptor (Homo sapiens, UniProt P08908); assay: Radioligand binding (saturation and competition), WT 5-HT1A
T1 construct: host or cells: HEK293T
T1 sequence (P08908 1-422): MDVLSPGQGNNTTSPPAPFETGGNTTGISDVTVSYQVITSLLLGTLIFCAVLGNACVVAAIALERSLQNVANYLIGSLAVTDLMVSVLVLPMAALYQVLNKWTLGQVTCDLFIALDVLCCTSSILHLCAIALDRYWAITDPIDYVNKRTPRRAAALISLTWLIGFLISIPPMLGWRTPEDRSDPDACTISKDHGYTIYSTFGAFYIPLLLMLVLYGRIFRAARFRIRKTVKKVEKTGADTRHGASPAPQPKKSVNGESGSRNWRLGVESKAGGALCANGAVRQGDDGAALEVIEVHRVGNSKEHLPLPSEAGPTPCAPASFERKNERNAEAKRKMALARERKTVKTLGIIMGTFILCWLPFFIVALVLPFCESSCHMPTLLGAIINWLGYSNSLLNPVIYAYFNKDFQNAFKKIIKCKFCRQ

human 5-HT1F receptor = target: T2, human 5-HT1F receptor (Homo sapiens, UniProt P30939); assay: Radioligand binding (saturation and competition), WT 5-HT1F
T2 construct: host or cells: HEK293T
T2 sequence (P30939 1-366): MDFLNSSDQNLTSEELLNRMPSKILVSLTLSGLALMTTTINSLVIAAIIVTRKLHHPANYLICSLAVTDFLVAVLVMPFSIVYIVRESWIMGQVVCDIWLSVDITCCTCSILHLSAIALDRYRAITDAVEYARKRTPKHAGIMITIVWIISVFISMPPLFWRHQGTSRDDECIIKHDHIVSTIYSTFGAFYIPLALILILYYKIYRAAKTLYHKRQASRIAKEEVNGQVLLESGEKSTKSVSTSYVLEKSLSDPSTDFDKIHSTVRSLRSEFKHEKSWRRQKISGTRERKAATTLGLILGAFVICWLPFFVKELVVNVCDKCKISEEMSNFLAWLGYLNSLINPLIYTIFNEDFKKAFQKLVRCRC

human 5-HT1B receptor [2] = target: T3, human 5-HT1B receptor (Homo sapiens, UniProt P28222); assay: Radioligand binding (saturation and competition), WT 5-HT1B
T3 construct: host or cells: HEK293T
T3 sequence (P28222 whole entry): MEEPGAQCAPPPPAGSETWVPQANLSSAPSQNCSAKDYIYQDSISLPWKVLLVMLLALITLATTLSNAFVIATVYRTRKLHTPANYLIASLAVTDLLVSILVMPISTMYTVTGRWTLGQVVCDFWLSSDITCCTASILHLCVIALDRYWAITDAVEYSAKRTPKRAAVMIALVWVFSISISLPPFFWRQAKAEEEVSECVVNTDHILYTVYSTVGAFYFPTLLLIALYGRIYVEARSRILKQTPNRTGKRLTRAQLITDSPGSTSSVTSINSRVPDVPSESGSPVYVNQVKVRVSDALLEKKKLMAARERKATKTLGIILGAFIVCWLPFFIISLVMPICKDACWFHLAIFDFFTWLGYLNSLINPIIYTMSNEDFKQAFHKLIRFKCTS

human 5-HT1D receptor [3] = target: T4, human 5-HT1D receptor (Homo sapiens, UniProt P28221); assay: Radioligand binding (saturation and competition), WT 5-HT1D
T4 construct: host or cells: HEK293T
T4 sequence (P28221 whole entry): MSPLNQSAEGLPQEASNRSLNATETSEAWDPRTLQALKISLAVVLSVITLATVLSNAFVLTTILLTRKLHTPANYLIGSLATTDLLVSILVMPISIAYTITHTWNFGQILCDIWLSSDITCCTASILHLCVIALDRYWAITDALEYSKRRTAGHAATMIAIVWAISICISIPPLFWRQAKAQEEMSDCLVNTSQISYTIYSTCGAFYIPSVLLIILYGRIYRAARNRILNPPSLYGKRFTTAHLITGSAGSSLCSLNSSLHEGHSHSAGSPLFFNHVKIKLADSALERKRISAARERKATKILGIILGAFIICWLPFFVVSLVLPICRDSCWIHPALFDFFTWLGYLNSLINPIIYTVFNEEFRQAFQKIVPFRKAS

human 5-HT1D receptor [4] = target: T4, human 5-HT1D receptor; assay: cAMP accumulation (LANCE Ultra TR-FRET) in HEK293T cells, WT 5-HT1D; format: cell-based; conditions: WT receptor; normalized to basal (0%) and 10 μM 5-CT (100%)
Procedure: (§1) Briefly, cells transfected with the desired receptor construct and compounds were incubated in the dark for 90 min at 37 °C. After incubation, cAMP detection reagents were added, and TR-FRET was used to quantify the cAMP produced.
(§2) The functional activity of compounds was determined by stimulating cells expressing the desired receptor with FSK and test compound in parallel with 12 known concentrations of cAMP. The known concentrations of cAMP were used to create a standard curve for each experiment that was used to interpolate the unknown values of cAMP in wells with test compounds. […] The EC50 and EMAX values were determined using the “dose response – log[agonist] vs response (three parameter)” nonlinear regression model in Prism and transformed to pEC50 values, reported as mean ± SD.
(§3) Summary of functional assay conditions at various 5-HT1 receptor point mutation constructs.

human 5-HT1A receptor [5] = target: T1, human 5-HT1A receptor; assay: cAMP accumulation (LANCE Ultra TR-FRET) in HEK293T cells, WT 5-HT1A; format: cell-based; conditions: WT receptor; normalized to basal (0%) and 10 μM 5-CT (100%)
Procedure: as §1, §2, §3

human 5-HT1B receptor [6] = target: T3, human 5-HT1B receptor; assay: cAMP accumulation (LANCE Ultra TR-FRET) in HEK293T cells, WT 5-HT1B; format: cell-based; conditions: WT receptor; normalized to basal (0%) and 10 μM 5-CT (100%)
Procedure: as §1, §2, §3

[7] = Affinity (pKi ± SD) 5-HT1A, WT receptor, [^3H]5-CT competition, mean ± SD
[8] = Affinity (pKi ± SD) 5-HT1B, WT receptor, [^3H]5-CT competition, mean ± SD
[9] = Affinity (pKi ± SD) 5-HT1D, WT receptor, [^3H]5-CT competition, mean ± SD

| Compound | Ki (human 5-HT1A receptor [1]; [7]) [nM] | Ki (human 5-HT1F receptor) [nM] | Ki (human 5-HT1B receptor [2]; [8]) [nM] | Ki (human 5-HT1D receptor [3]; [9]) [nM] | other results |
| --- | --- | --- | --- | --- | --- |
| CCCN(CCC)C1CCc2cccc(O)c2C1 (stereo not shown) [8-OH-DPAT, 8-hydroxy-N,N-dipropyl-1,2,3,4-tetrahydronaphthalen-2-amine, reference compound] |  |  |  |  | higher affinity at the 5-HT1A receptor over 5-HT1B and 5-HT1D receptors (human 5-HT1A receptor [1]; affinity ratio): 10–20 fold |
| CN(C)[C@@H]1CCc2c(cccc2-c2ccccc2)C1 [(R)-5-PAT] | 1050 | > 10000 | 1320 | 282 |  |
| CCCN(CCC)[C@@H]1CCc2cccc(O)c2C1 [(R)-8-OH-DPAT, 8-hydroxy-N,N-dipropyl-1,2,3,4-tetrahydronaphthalen-2-amine, reference compound] |  |  |  |  | 5-HT1D EMAX (%) (human 5-HT1D receptor [4]): 96 ± 2%; 5-HT1A EMAX (%) (human 5-HT1A receptor [5]): 95 ± 4%; 5-HT1B EMAX (%) (human 5-HT1B receptor [6]): 87 ± 4% |
| CN(C)[C@@H]1CCc2c(cccc2-c2ccccc2Cl)C1 [(R)-CPT] | 2140 | > 10000 | 72.4 | 417 |  |
| CCCN(CCC)[C@@H]1CCc2c(cccc2-c2ccccc2Cl)C1 [(R)-DCPT] | 117 | > 10000 | 55 | 117 |  |
| CCCN(CCC)[C@@H]1CCc2c(cccc2-c2ccccc2F)C1 [(R)-DFPT] | 117 | > 10000 | 64.6 | 107 |  |
| CN(C)[C@@H]1CCc2c(cccc2-c2ccco2)C1 [(R)-FAT] | 537 | > 10000 | 550 | 214 |  |
| CN(C)[C@@H]1CCc2c(cccc2-c2ccccc2F)C1 [(R)-FPT] |  | > 10000 | 240 | 912 |  |
| CN(C)[C@@H]1CCc2c(cccc2-c2cccc3ccccc23)C1 [(R)-NAP] | 263 | > 10000 | 155 | 107 |  |
| CN(C)[C@@H]1CCc2c(cccc2-c2cccn2C)C1 [(R)-NMP] |  | > 10000 | 339 | 316 | Affinity (pKi ± SD) 5-HT1A (human 5-HT1A receptor [1]; WT receptor, [^3H]5-CT competition, mean ± SD): 6.26 ± 0.03 |
| Fc1ccccc1-c1cccc2c1CC[C@@H](N1CCCC1)C2 [(R)-PFPT] |  |  |  |  | Ki (human 5-HT1A receptor [1]; read-out: Affinity (pKi ± SD) 5-HT1A (converted)): 288 nM; Ki (human 5-HT1F receptor; WT receptor, [^3H]5-HT competition, mean ± SD, read-out: Affinity (pKi ± SD) 5-HT1F (converted)): > 10000 nM; Ki (human 5-HT1B receptor [2]; read-out: Affinity (pKi ± SD) 5-HT1B (converted)): 457 nM; Ki (human 5-HT1D receptor [3]; read-out: Affinity (pKi ± SD) 5-HT1D (converted)): 417 nM |
| CN(C)[C@@H]1CCc2c(cccc2-c2cccs2)C1 [(R)-TAT] | 1510 | > 10000 | 3160 | 813 |  |
